The source made the active and inactive calls. The calls are words filed in the database; no cut-off is given here.
system: Rattus norvegicus; assay: In vivo proconvulsant activity in rats; format: functional; details: not given

Compound	ED50 [mg/kg]
CCOC(=O)c1cc2c(cn1)[nH]c1ccccc12	75
CCOc1cc2c3ccccc3nc-2c[nH]1.Cl	7

system: Mus musculus; assay: Dose required to induce convulsions in 50% of the mice.(In vivo proconvulsant activity.); details: not given

Compound	ED50 [mg/kg]
Cl.c1ccc2c(c1)[nH]c1c2ncc2[nH]c3ccccc3c21	15.5

system: not listed separately; assay: Solubility in water.; format: physicochemical; details: read-out: S

Compound	solubility [µg/mL]
Cl.c1ccc2c(c1)[nH]c1c2ncc2[nH]c3ccccc3c21	< 2000
CCOC(=O)c1cc2c3ccccc3nc-2c[nH]1.Cl	1000
CCOC(=O)c1cc2c(cn1)[nH]c1ccccc12	< 200

More lines, now with the values ahead:

solubility [µg/mL]	Compound
13000	Cl.c1ccc2c(c1)[nH]c1c[nH]c3c4ccncc4nc-3c12
12000	CCOc1cc2c3ccccc3nc-2c[nH]1.Cl
7600	Cl.c1ccc2c(c1)[nH]c1c[nH]c3c4cccnc4nc-3c12
11000	Cl.c1cnc2c3[nH]cc4[nH]c5ccccc5c4c-3nc2c1
< 200	CCc1c(C(=O)OC)[nH]cc2nc3cc(OC)c(OC)cc3c1-2.Cl

system: Monkey; assay: Anxiogenic activity in vivo in Rhesus monkeys; Potent activity; format: functional, organism-based; details: Cercopithecidae

Compound	ED50
CCOc1cc2c3ccccc3nc-2c[nH]1.Cl	Active

system: Mus musculus; assay: Dose required to induce convulsions in 50% of the mice that had been previously treated by a subconvulsant dose of pentylenetetrazole (40 mg/kg); details: not given

Compound	ED50 [mg/kg]
CCOc1cc2c3ccccc3nc-2c[nH]1.Cl	7

system: Mus musculus; assay: Dose required to induce convulsions in 50% of the mice.(In vivo convulsant activity.); details: not given

Compound	ED50 [mg/kg]
CCc1c(C(=O)OC)[nH]cc2nc3cc(OC)c(OC)cc3c1-2.Cl	4

system: Monkey; assay: Anxiogenic activity in vivo in Rhesus monkeys; format: functional; details: Cercopithecidae, in Macaca mulatta

Compound	ED50 [mg/kg]
CCOC(=O)c1cc2c(cn1)[nH]c1ccccc12	2.5

system: Mus musculus; assay: In vivo dose required to induce convulsions in 50% of the mice previously treated by a subconvulsant dose of pentylenetetrazole (40 mg/kg); details: not given

Compound	ED50 [mg/kg]
Cl.c1ccc2c(c1)[nH]c1c[nH]c3c4ccncc4nc-3c12	25
Cl.c1ccc2c(c1)[nH]c1c[nH]c3c4cccnc4nc-3c12	11

target: GABA-A receptor; anion channel; assay: In vitro affinity at the Benzodiazepine receptor (BzR) is its ability to displace [3H]diazepam from BzR.; format: protein-complex assay, Rattus norvegicus; details: not given

Compound	IC50 [nM]
c1ccc2c(c1)ccn1c2nc2c3c4ccccc4nc-3c[nH]c21	> 2000
c1ccc2c(c1)ccc1nc3c4c5ccccc5nc-4c[nH]c3n12	> 3000
c1ccc2c(c1)cnn1c2nc2c3c4ccccc4nc-3c[nH]c21	200
c1ccc2c(c1)ccc1c3[nH]cc4nc5ccccc5c-4c3[nH]c21	> 125
c1ccc2c3c4ncc5[nH]c6ccccc6c5c4nc-3c[nH]c2c1	> 1000
c1ccc2c(c1)ccc1[nH]c3c4c5ccccc5nc-4c[nH]c3c12	> 125

Further lines, results first:

IC50 [nM]	Compound
51.5	Cl.c1ccc2c(c1)[nH]c1c[nH]c3c4ccncc4nc-3c12
39	c1ccc2c(c1)[nH]c1cnc3c(nc4ccccn43)c12
24	CCOc1cc2c3ccccc3nc-2c[nH]1.Cl
10.6	Cl.c1ccc2c(c1)[nH]c1c[nH]c3c4cccnc4nc-3c12
10.2	Cl.c1cnc2c3[nH]cc4[nH]c5ccccc5c4c-3nc2c1
1	CCc1c(C(=O)OC)[nH]cc2nc3cc(OC)c(OC)cc3c1-2.Cl

organism: Rattus norvegicus; assay: Dose required to induce convulsions in 50% of the rats; format: functional; details: not given

Compound	ED50 [mg/kg]
CCOC(=O)c1cc2c(cn1)[nH]c1ccccc12	3.2

From ChEMBL document CHEMBL1125343, “Molecular yardsticks. Rigid probes to define the spatial dimensions of the benzodiazepine receptor binding site” (J Med Chem, 1992)
